Experimental data reported in ChEMBL document CHEMBL1145059, “Bispyridinium cyclophanes: novel templates for human choline kinase inhibitors” (J Med Chem, 2003).

Tests used:
[1] = test system: HT-29; test: In vitro inhibition of proliferation in ras transformed cells on the HT-29 (Human tumor) cell line; assay type: functional, cell-based
[2] = molecular target: Choline kinase alpha (Homo sapiens, UniProt P35790); test: Ex vivo inhibitory activity against human choline kinase was determined
Chain of Choline kinase alpha (P35790 whole entry): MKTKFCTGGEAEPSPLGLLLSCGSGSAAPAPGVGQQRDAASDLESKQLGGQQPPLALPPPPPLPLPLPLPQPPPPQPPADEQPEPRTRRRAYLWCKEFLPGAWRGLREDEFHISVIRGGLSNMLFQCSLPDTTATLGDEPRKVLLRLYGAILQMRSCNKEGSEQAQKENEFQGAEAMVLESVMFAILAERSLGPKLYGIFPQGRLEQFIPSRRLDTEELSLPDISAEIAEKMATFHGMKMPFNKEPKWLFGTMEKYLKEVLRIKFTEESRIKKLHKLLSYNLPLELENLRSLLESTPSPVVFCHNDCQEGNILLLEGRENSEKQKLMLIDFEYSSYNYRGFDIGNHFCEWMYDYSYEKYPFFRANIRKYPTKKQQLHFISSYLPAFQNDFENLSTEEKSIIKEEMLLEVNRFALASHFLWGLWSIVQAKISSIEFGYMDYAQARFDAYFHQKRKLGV

Compound	IC50 [1] [µM]	IC50 [2] [µM]
c1cc2cc(c1)CNc1cc[n+](cc1)Cc1cccc(c1)C[n+]1ccc(cc1)NC2	> 100	13.2
CN(c1ccc(Cl)cc1)c1cc[n+](Cc2cc(C[n+]3ccc(N(C)c4ccc(Cl)cc4)cc3)cc(C[n+]3ccc(N(C)c4ccc(Cl)cc4)cc3)c2)cc1		1.4
c1cc2cc(c1)CNc1cc[n+](cc1)Cc1ccc(cc1)C[n+]1ccc(cc1)NC2	28.8	0.3

Continued by falling IC50 [2], values first:

IC50 [1] [µM]	IC50 [2] [µM]	Compound
58.6	24.8	c1cc2cc(c1)C[n+]1ccc(cc1)NCc1ccc(cc1)CNc1cc[n+](cc1)C2
36.9	2.1	c1cc2ccc1CNc1cc[n+](cc1)Cc1ccc(cc1)C[n+]1ccc(cc1)NC2
